Laboratory results reported in ChEMBL document CHEMBL5505969, “Discovery of new piperaquine hybrid analogs linked by triazolopyrimidine and pyrazolopyrimidine scaffolds with antiplasmodial and transmission blocking activities” (Eur J Med Chem, 2024).
Active and inactive are the calls of the source. The rule behind the calls is not given here.

How the values were obtained:
[1] = Cytotoxicity against human HepG2 cells assessed as reduction in cell viability incubated for 72 hrs by MTT assay; format: toxicity, cell-based
[2] = Selectivity index, ratio of CC50 for human HepG2 cells to IC50 for antiplasmodial activity against sorbitol-synchronized ring stage chloroquine sensitive Plasmodium falciparum 3D7 infected in erythrocytes; format: toxicity, cell-based; details: Plasmodium falciparum 3D7 in erythrocytes, read-out: Ratio CC50/IC50
[3] = target: T1, Dihydroorotate dehydrogenase (quinone), mitochondrial (Plasmodium falciparum (isolate 3D7)) (UniProt Q08210); test: Inhibition of Plasmodium falciparum DHODH assessed as residual activity at 100 uM measured over 60 secs by DCIP dye based colorimetric assay relative to control; details: time > 60.0 sec
T1 sequence (whole entry): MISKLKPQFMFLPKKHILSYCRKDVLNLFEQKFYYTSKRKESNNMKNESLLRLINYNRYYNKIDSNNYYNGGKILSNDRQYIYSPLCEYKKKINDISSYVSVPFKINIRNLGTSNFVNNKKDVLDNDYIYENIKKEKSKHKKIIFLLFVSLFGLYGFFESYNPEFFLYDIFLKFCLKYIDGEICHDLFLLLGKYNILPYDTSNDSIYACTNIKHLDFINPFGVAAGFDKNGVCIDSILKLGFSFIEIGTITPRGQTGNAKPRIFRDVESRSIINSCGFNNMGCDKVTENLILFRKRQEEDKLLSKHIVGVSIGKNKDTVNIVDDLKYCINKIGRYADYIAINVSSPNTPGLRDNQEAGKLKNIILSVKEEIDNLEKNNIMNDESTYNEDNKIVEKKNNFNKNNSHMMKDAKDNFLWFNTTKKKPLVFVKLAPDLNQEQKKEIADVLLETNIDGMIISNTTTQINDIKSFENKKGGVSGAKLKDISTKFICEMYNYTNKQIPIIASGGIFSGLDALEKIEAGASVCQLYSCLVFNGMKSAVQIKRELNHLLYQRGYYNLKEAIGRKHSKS

[4] = target: T1, Dihydroorotate dehydrogenase (quinone), mitochondrial (Plasmodium falciparum (isolate 3D7)); test: Inhibition of Plasmodium falciparum DHODH at 100 uM measured over 60 secs by DCIP dye based colorimetric assay relative to control; details: time > 60.0 sec
Plasmodium berghei = test: Antiplasmodial activity against GFP-expressing Plasmodium berghei HSP70 infected in CD-1 mouse assessed as inhibition of ookinete formation at 10 uM measured after 22 hrs by giemsa staining based microscopic analysis; format: functional; details: read-out: INH
[5] = Ratio of IC50 for Plasmodium falciparum infected in erythrocytes measured after 24 hrs by SYBR green dye based fluorescence assay to IC50 for Plasmodium falciparum infected in erythrocytes measured after 72 hrs by SYBR green dye based fluorescence assay; format: functional, Erythrocyte
Plasmodium falciparum [6] = test: Antiplasmodial activity against Plasmodium falciparum infected in erythrocytes assessed as induction of parasite death by measuring irreversible chromatin condensation with appearance of pyknotic nuclei at 300 nM measured after 24 hrs; format: functional, organism-based; details: Erythrocyte
Plasmodium falciparum [7] = test: Antiplasmodial activity against sorbitol-synchronized ring stage chloroquine sensitive Plasmodium falciparum 3D7 infected in erythrocytes measured after 48 hrs by SYBR green dye based fluorescence analysis; format: functional, organism-based; details: 3D7, Erythrocyte
Plasmodium falciparum [8] = test: Antiplasmodial activity against sorbitol-synchronized ring stage chloroquine resistant Plasmodium falciparum K1 infected in erythrocytes measured after 48 hrs by SYBR green dye based fluorescence analysis; format: functional, organism-based; details: K1, Erythrocyte
Plasmodium falciparum [9] = test: Resistance index, ratio of IC50 for antiplasmodial activity against sorbitol-synchronized ring stage chloroquine resistant Plasmodium falciparum K1 infected in erythrocytes to IC50 for antiplasmodial activity against sorbitol-synchronized ring stage chloroquine sensitive Plasmodium falciparum 3D7 infected in erythrocytes; format: functional
Plasmodium falciparum [10] = test: Antiplasmodial activity against GFP expressing sorbitol-synchronized ring stage laboratory adapted Plasmodium falciparum 3D7HT assessed as reduction in infectivity by measuring inhibition of gametocyte formation at 10 uM treated for 72 hrs followed by replacement with fresh media without compound for 24 hrs and measured on day 4 by giemsa staining based microscopic analysis; format: functional
Plasmodium falciparum [11] = test: (§1) Antiplasmodial activity against sorbitol-synchronized ring stage atovaquone resistant Plasmodium falciparum TM90C6B harboring Y268S mutation in CYTB gene, Y184F mutation in MDR1 gene, N51I/C59R/S108N mutation in DHFR gene and S436F/A437G/A581G mutation in DHPS gene infected in erythrocytes measured after 48 hrs by SYBR green dye based fluorescence analysis; format: functional, organism-based; details: Erythrocyte
Plasmodium falciparum [12] = test: as §1, with “chloroquine, mefloquine and pyrimethamine” for “atovaquone”, “Dd2” for “TM90C6B”, “N86F/M74I/ N75E/[…]” for “Y268S mutation in CYTB gene, Y184F”, “S436F/A437G/A613S” for “S436F/A437G/A581G”; format: functional, organism-based; details: Dd2, Erythrocyte
Plasmodium falciparum [13] = test: Resistance index, ratio of IC50 for antiplasmodial activity against sorbitol-synchronized ring stage chloroquine, mefloquine and pyrimethamine resistant Plasmodium falciparum Dd2 harboring N86F/M74I/ N75E/[…] mutation in MDR1 gene, N51I/C59R/S108N mutation in DHFR gene and S436F/A437G/A613S mutation in DHPS gene infected in erythrocytes to IC50 for antiplasmodial activity against sorbitol-synchronized ring stage chloroquine sensitive Plasmodium falciparum 3D7 infected in erythrocytes; format: functional
[14] = target: T2, Dihydroorotate dehydrogenase (quinone), mitochondrial (Plasmodium falciparum (isolate 3D7), UniProt Q08210); test: Inhibition of Plasmodium falciparum DHODH measured over 60 secs by DCIP dye based colorimetric assay
T2 sequence (Q08210 whole entry): T1 sequence (whole entry)

Plasmodium falciparum [15] = test: Antiplasmodial activity against Plasmodium falciparum 3D7; format: functional, organism-based

| Compound | CC50 at 72 h [1] [nM] | selectivity ratio [2] | Activity [3] [%] | inhibition [4] [%] | Percent inhibition of ookinete formation at 10 µM (Plasmodium berghei) [%] | IC50 (Plasmodium falciparum [7]) [nM] | inhibition at 10 µM (Plasmodium falciparum [10]) [%] | other results |
| --- | --- | --- | --- | --- | --- | --- | --- | --- |
| Cc1cc(NCCCCNc2ccnc3cc(Cl)ccc23)n2nc(C)cc2n1 | > 100000 | > 1570 | 89.4 | < 50 | 22 | – | – | – |
| Cc1cc(NCCCCNc2ccnc3cc(Cl)ccc23)n2nc(C)nc2n1 | > 25000 | > 100 | 92 | < 50 | 0 | – | – | – |
| C[C@H]1[C@H](OC(=O)CCC(=O)O)O[C@@H]2O[C@@]3(C)CC[C@H]4[C@H](C)CC[C@@H]1[C@@]24OO3 [ARTESUNATE] | – | – | – | – | – | – | – | Ratio IC50 [5]: 1.04; Activity (Plasmodium falciparum [6]): Active |
| Cc1cc(N2CCN(c3ccnc4cc(Cl)ccc34)CC2)n2nc(C)nc2n1 | – | – | 93 | < 50 | – | > 10000 | – | – |
| Cc1cc(NCCCCNc2ccnc3cc(Cl)ccc23)n2nc(C(F)(F)F)nc2n1 | > 25000 | > 81 | 80.8 | < 50 | 42 | 310 | 43 | IC50 (Plasmodium falciparum [8]): 300 nM; Ratio IC50 (Plasmodium falciparum [9]): 1 |
| COc1cc(NC(C)CCCN)c2ncccc2c1 (stereo not drawn) [PRIMAQUINE] | – | – | – | – | – | – | 86 | – |
| O=C1C(O)=C([C@H]2CC[C@H](c3ccc(Cl)cc3)CC2)C(=O)c2ccccc21 [ATOVAQUONE] | – | – | – | – | 78 | 1 | – | IC50 (Plasmodium falciparum [11]): > 1000 nM |
| Cc1cc(NCCCCCCCNc2ccnc3cc(Cl)ccc23)n2nc(C(F)(F)F)nc2n1 | 13000 | 33 | 16.4 | 84 | 20 | 400 | 69 | IC50 (Plasmodium falciparum [12]): 330 nM; Ratio IC50 (Plasmodium falciparum [13]): 0.8; IC50 [14]: 4800 nM |
| Clc1ccc2c(N3CCN(CCCN4CCN(c5ccnc6cc(Cl)ccc56)CC4)CC3)ccnc2c1 [PIPERAQUINE] | – | – | – | – | – | – | – | IC50 (Plasmodium falciparum [15]): 60 nM |
| Cc1cc(NCCCNc2ccnc3cc(Cl)ccc23)n2nc(C)nc2n1 | 110000 | 131 | 97 | < 50 | 23 | 840 | 50 | IC50 (Plasmodium falciparum [8]): 640 nM; Ratio IC50 (Plasmodium falciparum [9]): 0.8 |
